Experimental findings from ChEMBL document CHEMBL5329165, “Design, synthesis and biological evaluation of phenanthridine amide and 1,2,3-triazole analogues against Mycobacterium tuberculosis” (RSC Med Chem, 2023) are described below.

≈ marks a conversion by molar mass, not a printed value.

The subject of the test is Mycobacterium tuberculosis. Description: Antimycobacterial activity against Mycobacterium tuberculosis H37Ra transformed with pSMT1 luciferase reporter plasmid incubated for 7 days by luminometric assay. In kind it is functional. The conditions noted are these: 168 h, time 7 day. On the technique in general: A reporter such as luciferase makes a cellular process visible.

Usually MIC stands for the lowest concentration found to suppress growth. The low end stands for greater potency, the high end for weaker potency. `O=C(Nc1ccc(N2CCN(C(=O)c3cnccn3)CC2)nc1)c1ccccc1` gave a minimal inhibitory concentration (MIC) of 1.46 µM (≈ 0.567 µg/mL). That is a single-digit micromolar value.
